Patent US20250360142A1, “NOVEL ATP-SENSITIVE POTASSIUM CHANNEL POTENTIATORS, THEIR PREPARATION AND USE” (RHYTHM PHARMACEUTICALS, INC., priority 2022, published 2025)

What was measured:
EndoC-βH1 Cell Line = assay: GSIS assay in EndoC-βH1 cell line; type: cell-based
Experimental: (§1) INS-1E, rat pancreatic tumor (insulinoma) cells were used in the GSIS assay. INS-1E cells were thawed and incubated in culture medium (CM) (RPMI 1640+Glucose q.s., HEPES 25 mM, Na-Pyruvat 1 mM, 2-Mercaptoethanol 50 μM, Fetal Calf Serum; heat inactivated (FCS) 10%, Penicillin/Streptomycin 100 U/ml) at 37° C.; 5% CO2 in a humidified atmosphere. 96 welled plates are coated with Matrigel by incubating the plates with 1 ml pre-diluted 1:10 with cold basal medium with 100 μl/well at 37° C. for 1 hour. Matrigel is then removed and replaced with 100 μl CM. Cells are then seeded into the wells as 70 000 cells/well. CM is refreshed with 200 μl fresh CM on the third day. CM is refreshed again with 200 μl fresh CM on the sixth day. GSIS assay is performed on the seventh day and cells in wells are washed with PKrebs®BSA and incubated with 100 μL/well for 2 h. Secretion plates are placed in an incubator at 37° C., 5% C02 and saturated humidity for 60 min. Meanwhile, lysis solution is prepared by adding 1 tablet of protease inhibitor/10 mL TETG solution and kept at 4° C. until the end of the experiment. The other incubation buffers are prepared without adding pharmacological compounds, aliquoted and then placed in a water bath at 37° C. The samples are prepared including negative (βKrebs®B0=0 mM Glucose) and positive controls (PKrebs®B20=20 mM Glucose) and each compound to be tested is diluted in DMSO as having a series of final concentration including 10.00, 4.00, 1.60, 0.64, 0.26, 0.10, 0.04, 0.02 μM.
(§2) After 2 hours of starvation, glucose stimulation and treatments are initiated. KRB Buffer from cells is removed by pipetting. The solutions are homogenized and the cells are treated with 90 µL/well. 10 μl from 10-fold compound dilution is added to the assay plate (final 100 μl/well) according to the following layout for each compound to be tested.
(§3) Incubation time is 40 minutes. Plates are placed in an incubator at 37° C., 5% CO2 and saturated humidity. After incubation, 80 μL of supernatants are collected without disrupting the cell layer and stored at 4° C. or on ice until centrifugation. Remaining medium are removed from each well and 100 μL/well of cold lysis solution is added and incubated for minimum 2 minutes at room temperature. Cell lysis is observed under microscope and waited for maximum for 5 more minutes until the lysis is complete. Cell lysates are collected and all samples including supernatants are centrifuged at 700×g, 5 min at 4° C. 30 μL of each samples are transferred into aliquots for ELISA. ELISA is performed with HTRF Assay Kit comprising an insulin high range kit supplied by Cisbio/Perkin Elmer. 5 μl of each Insulin standard and 5 μl of either supernatant or lysate are transferred on HTRF plate. 40 μl/well of Anti-insulin—XL665 and 20 μl/well of Anti-insulin—EU are added to each well and the plate is read on HTRF compatible reader (fluorescence 620 nm & 665 nm).
GSIS experiments were also performed in other cell lines, e.g., EndoC-βH1, a canonical cell line for screening new therapeutic compounds.

INS-1E cells = assay: Glucose stimulated insulin secretion assay (GSIS) in INS-1E cells; type: cell-based, rat; conditions: for IC50 / inhibition at 10 µM: Rattus norvegicus; for inhibition at 10 µM: INS-1E cells
Experimental: as §1, §2, §3

IC50 (EndoC-βH1 Cell Line)	IC50 (INS-1E cells; INS-1E cell line)	Compound	inhibition at 10 µM (INS-1E cells)	% inhibition of Insulin (Average Inhibition (%)) (INS-1E cells; INS-1E cell line, average inhibition)
< 500 nM	< 500 nM	O=S1(=O)N=C(NC2CC23CCC3)Nc2cc(Cl)c(F)cc21 (stereo not shown) [Compound 15, 6-chloro-7-fluoro-3-(spiro[2.3]hexan-1-ylamino)-4H-benzo[e][1,2,4]thiadiazine 1,1-dioxide]		
< 500 nM	500 to 1000 nM	O=S1(=O)N=C(NC23CC(C2)C3)Nc2ccc(F)cc21 [Compound 1, 3-(bicyclo[1.1.1]pentan-1-ylamino)-7-fluoro-4H-benzo[e][1,2,4] thiadiazine 1,1-dioxide]	≥ 50%	
< 500 nM	< 500 nM	O=S1(=O)N=C(NC23CC(C2)C3)Nc2cc(Cl)c(F)cc21 [Compound 14, 3-(bicyclo[1.1.1]pentan-1-ylamino)-6-chloro-7-fluoro-4H-benzo[e][1,2,4] thiadiazine 1,1-dioxide]	≥ 50%	
1000 to 2000 nM		C[C@@H]1CC1NC1=NS(=O)(=O)c2cc(F)c(Cl)cc2N1 (mixture of isomers) [Compound 25, (rac)-trans-6-chloro-7-fluoro-3-((2-methylcyclopropyl)amino)-4H-benzo[e][1,2,4|thiadiazine 1,1-dioxide]		C (C is equal to 10-25% inhibition)
